Reference: US20250255876A1, “COMPOSITIONS AND METHODS FOR CANCER TREATMENT” (ARIEL SCIENTIFIC INNOVATIONS LTD., priority 2021, published 2025)

Experiments:
Type in all cases: cell-based
[1] = tested on: A549 cells; assay: Colony survival assay, A549 cells; details: for survival rate, combined treatment: A549, 5 μM cisplatin + 50 μM compound; for toxicity / cell viability, compound alone: A549, 50 μM compound alone; for sensitization effect to cisplatin: A549, cisplatin + 50 μM compound; for cell survival with cisplatin plus inhibitor: A549, varying cisplatin, 48 hours
Method: (§1) H1975 cells were plated in 24-well plates at 50,000 cells/well (for 50 µM inhibitor treatment) or 20,000 cells/well (for […] inhibitor treatment). U2OS and A549 cells were plated in 24-well plates at 5000 cells/well. The next day, cells were treated with varying concentrations of cisplatin, either with or without added inhibitor compound. After 48 hours of cisplatin+compound treatment, the cells were washed 3 times with PBS×1 and fresh media applied. After 4 days of recovery, the cells were stained with methylene blue and imaged using a Nikon SMZ25 stereomicroscope. The images were analyzed using the ImageJ (National Institutes of Health) area measurement tool to quantify total colony size in each well.
(§2) Cells were plated in 24-well plates at 50,000 cells/well (H1975 line) or 10,000 cells/well (A549 line). The next day, cells were treated with varying concentrations of cisplatin ([…]), with or without 50 μM compound. For the untreated control wells containing only cisplatin, DMSO was applied in place of the compound. After 48 hours of cisplatin+compound treatment, the cells were washed 3 times with PBS and fresh media was applied. After 4 days of recovery, the cells were stained with methylene blue and imaged using a Nikon SMZ25 stereomicroscope. The images were analyzed using the ImageJ (National Institutes of Health) area measurement tool to quantify total colony size in each well.
(§3) In order to assess the ability of the selected compounds to sensitize cells during cisplatin treatment, the inventors established a colony survival assay comparing the viability of cells treated with cisplatin alone or with combined treatment of cisplatin and 50 μM compound. For the compound screen, we used two lung cancer cell lines: human non-small lung carcinoma H1975 cells, and epithelial lung adenocarcinoma A549 cells. Out of ten compounds tested, compounds c #2 and c #3 were identified with the most significant sensitization effect and were chosen for future characterization. […] Survival rate was reduced from 90% in 5 μM cisplatin treatment to 50% survival in the combined treatment (FIGS. 11A-B). H1975 cells presented similar behavior following doxorubicin treatment (FIG. 11C). IC50 was calculated using linear regression, presenting a clear reduction of cisplatin's IC50 in all treatments.

[2] = biological target: MAD2L2-Rev1 complex (Homo sapiens, UniProt Q9UI95); assay: GFP-Trap co-immunoprecipitation of YFP-Rev1 and myc-MAD2L2 in HEK293 cells; design: expressed in transfected cells; host or cells: HEK293; details: 50 μM; for reduction of MAD2L2-Rev1 binding (complex formation): 24 h
MAD2L2-Rev1 complex, sequence (Q9UI95 whole entry, one chain of several): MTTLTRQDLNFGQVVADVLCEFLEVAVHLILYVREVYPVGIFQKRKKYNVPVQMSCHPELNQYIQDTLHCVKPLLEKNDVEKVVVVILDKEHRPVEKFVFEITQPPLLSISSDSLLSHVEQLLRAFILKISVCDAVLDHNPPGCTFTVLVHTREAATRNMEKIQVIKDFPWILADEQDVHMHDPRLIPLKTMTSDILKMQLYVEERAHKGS
Method: HEK293 cells were plated in 10-cm plates at 40-50% confluency. The next day, the cells were co-transfected with YFP-Rev1 and myc-MAD2L2 plasmids. After 24 hours, 50 µM inhibitor compounds (or DMSO negative control) were applied to the cells and growth continued for another 24 hours. The cells were then harvested and protein extraction was performed, followed by IP pulldown of the YFP-Rev1 species with GFP-Trap A conjugated agarose beads, to assess the levels of Co-IP'ed myc-REV7.
Medium/DMEM (Biological Industries Israel Beit Haemek; 01-052-1A) with 4.5 g/l D-glucose, 4 mM L-glutamine, 10% fetal bovine serum (Biological Industries Israel Beit Haemek; 04-007-1A), and 1% penicillin/streptomycin. The H1975 cells were cultured in RPMI 1640 medium (Biological Industries Israel Beit Haemek; 01-100-1A) with 4.5 g/l D-glucose, 4 mM L-glutamine, 10% fetal bovine serum (Biological Industries Israel Beit Haemek; 04-007-1A), and 1% penicillin/streptomycin. Transfections of HEK293 cells with plasmid DNA were performed using the Avalanche® Everyday Transfection Reagent (EZT-EVDY-1); according to the manufacturer's protocol. Briefly, cells were passaged the day before transfection to reach a confluency of 60-70%. The next day, the selected plasmid DNA was incubated in serum-free media with the recommended volume of transfection reagent for 20 minutes at room temperature. This transfection mix was gently added to the prepared cell culture plate(s) for continued incubation at 37° C. For co-IP experiment plates, after 24 hours, the relevant compound (DMSO vehicle, c #2, or c #3) was added in pre-warmed media, and the transfected plates were incubated for another 24 hours at 37° C. until harvesting.
HEK293 cells were harvested 48 h following co-transfection and lysed in extraction buffer (50 mM Tris pH 8, 150 mM NaCl, 20 mM EDTA, 50 mM NaF, 1% TritonX) supplemented with Merck® 1000×protease inhibitor (539134). Cells were lysed on ice for 30 minutes and centrifuged at 20,000 g for 30 minutes at 4° C. For immunoblotting, extracts were boiled in Laemmli buffer for 5 min. Equal amounts of protein sample (30 μg) were loaded on 8%-12% acrylamide gel and transferred to a nitrocellulose membrane (Amersham). For immunoprecipitations, clarified lysates were supplemented with 7 μl of equilibrated GFP-Trap antibody-conjugated agarose beads (Chromotek; gta-20) and incubated for 1-2 h at 4° C. Beads were washed three times in PBS buffer and boiled in Laemmli buffer for 5 minutes. The following primary antibodies were used for immunoblotting: Myc (Santa Cruz; SC-40) 1:1000 dilution, GFP (Santa Cruz, SC-9996) 1:1000 dilution, MAD2L2 (ProteinTech; 12683-1-AP). […]

[3] = tested on: H1975 cells; assay: Colony survival assay, H1975 cells; details: for survival rate, combined treatment: H1975, 5 μM cisplatin + 50 μM compound; for toxicity / cell viability, compound alone: H1975, 50 μM compound alone; for sensitization effect to cisplatin: H1975, cisplatin + 50 μM compound; for sensitization to doxorubicin: H1975, doxorubicin + 50 μM compound, 48 h; for cell survival with cisplatin plus inhibitor: H1975, varying cisplatin, 48 hours
Method: as §1, §2, §3

| Structure (SMILES) | survival rate, combined treatment [1] [%] | toxicity / cell viability, compound alone [1] | toxicity / cell viability, compound alone ([1]; listed as c #2) | sensitization effect to cisplatin [1] | cell survival with cisplatin plus inhibitor [1] | Rev1-Rev7 binding interaction (in words) [2] | reduction of MAD2L2-Rev1 binding (complex formation) [2] | survival rate, combined treatment [3] [%] | toxicity / cell viability, compound alone [3] | toxicity / cell viability, compound alone ([3]; listed as c #2) | sensitization effect to cisplatin [3] | sensitization to doxorubicin [3] | cell survival with cisplatin plus inhibitor [3] | toxicity / cell viability, compound alone ([1]; listed as c #3) | toxicity / cell viability, compound alone ([3]; listed as c #3) |
| --- | --- | --- | --- | --- | --- | --- | --- | --- | --- | --- | --- | --- | --- | --- | --- |
| CNc1nc(N2CCCCC2)nc(-n2cnc(SCC(N)=O)n2)n1 [Compound 2] | 50 | no reduction in cell viability | caused no toxicity | approximately twofold sensitization effect | reduction in cell survival | reduction in Rev1-Rev7 binding interaction | about 50% | 50 | no reduction in cell viability | caused no toxicity | approximately twofold sensitization effect | sensitized | reduction in cell survival | – | – |
| Cc1oc(-c2ccco2)nc1CC(=O)N[C@@H](C(=O)O)c1ccccc1 [Compound 3] | 50 | no reduction in cell viability | – | approximately twofold sensitization effect | reduction in cell survival | reduction in Rev1-Rev7 binding interaction | about 80% | 50 | no reduction in cell viability | – | approximately twofold sensitization effect | sensitized | reduction in cell survival | caused no toxicity | caused no toxicity |
